Test results taken from ChEMBL document CHEMBL5528054, “Novel Cocrystal Structures of Peptide Antagonists Bound to the Human Melanocortin Receptor 4 Unveil Unexplored Grounds for Structure-Based Drug Design” (J Med Chem, 2024).
Activity calls are given as the source filed them. The calls are words filed in the database; no cut-off is given here.

Tests used:
Melanocortin receptor 4 = Melanocortin receptor 4 (Homo sapiens, UniProt P32245); assay: Antagonist activity at C-terminal HA-tagged human MC4-R stably expressed in HEK293 cells co-expressing GScAMP22P cAMP reporter assessed as inhibition of alpha-MSH induced cAMP production by cell based luminescence assay; assay type: functional
Melanocortin receptor 3 = Melanocortin receptor 3 (Homo sapiens, UniProt P41968); assay: Antagonist activity at C-terminal HA-tagged human MC3-R stably expressed in HEK293 cells co-expressing GScAMP22P cAMP reporter assessed as inhibition of alpha-MSH induced cAMP production by cell based luminescence assay; assay type: functional
[1] = target: T1, Melanocyte-stimulating hormone receptor (Homo sapiens, UniProt Q01726); assay: Partial agonist activity at C-terminal HA-tagged human MC1-R stably expressed in HEK293 cells co-expressing GScAMP22P cAMP reporter assessed as inhibition of alpha-MSH induced cAMP production by cell based luminescence assay; assay type: functional
Target sequence in this assay (Q01726 whole entry): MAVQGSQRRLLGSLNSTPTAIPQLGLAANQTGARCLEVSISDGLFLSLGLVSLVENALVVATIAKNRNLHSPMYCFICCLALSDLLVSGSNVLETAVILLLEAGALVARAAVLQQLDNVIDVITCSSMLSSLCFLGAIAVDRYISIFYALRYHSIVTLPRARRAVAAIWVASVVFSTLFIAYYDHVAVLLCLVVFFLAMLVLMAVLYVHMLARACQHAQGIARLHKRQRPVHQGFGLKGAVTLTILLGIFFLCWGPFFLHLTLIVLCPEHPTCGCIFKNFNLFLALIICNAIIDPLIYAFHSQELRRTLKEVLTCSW

[2] = target: T1, Melanocyte-stimulating hormone receptor; assay: Partial agonist activity at C-terminal HA-tagged human MC1-R stably expressed in HEK293 cells co-expressing GScAMP22P cAMP reporter assessed as inhibition of alpha-MSH induced cAMP production by cell based luminescence assay relative to control; assay type: functional; parameters: concentration or dose not given beside the values; details: filed as partial agonist, concentration not given here
Target sequence in this assay (Q01726 whole entry, looked up): as the sequence (Q01726 whole entry) above

HEK293 [3] = assay: Selectivity ratio of IC50 for C-terminal HA-tagged human MC4-R stably expressed in HEK293 cells co-expressing GScAMP22P cAMP reporter assessed as inhibition of alpha-MSH induced cAMP production to IC50 for C-terminal HA-tagged human MC1-R stably expressed in HEK293 cells co-expressing GScAMP22P cAMP reporter assessed as inhibition of alpha-MSH induced cAMP production; assay type: cell-based
HEK293 [4] = assay: Selectivity ratio of IC50 for C-terminal HA-tagged human MC4-R stably expressed in HEK293 cells co-expressing GScAMP22P cAMP reporter assessed as inhibition of alpha-MSH induced cAMP production to IC50 for C-terminal HA-tagged human MC3-R stably expressed in HEK293 cells co-expressing GScAMP22P cAMP reporter assessed as inhibition of alpha-MSH induced cAMP production; assay type: cell-based
Mus musculus [5] = assay: In vivo activation of Kir7.1 channel in cannulated C57BL/6J mouse assessed as increase in food intake at 500 pM,ICV administration and measured after 6 hrs; assay type: functional
Mus musculus [6] = assay: In vivo activation of Kir7.1 channel in cannulated C57BL/6J mouse assessed as increase in food intake at 500 pM,ICV administration for 7 days; assay type: functional; details: time 7.0 day
T-REx-293 = assay: Inhibition of Kir7.1 […] mutant (unknown origin) expressed in human T-REx-293 cells co-expressing human MC4-R assessed as decrease in K+ conductance at 10 uM incubated for 24 hrs by high-throughput automated patch clamp analysis; assay type: cell-based
Mus musculus [7] = assay: In vivo activation of Kir7.1 channel in cannulated C57BL/6J mouse assessed as increase in food intake at 500 pM,ICV administration and measured after 4 hrs; assay type: functional
Mus musculus [8] = assay: In vivo activation of Kir7.1 channel in cannulated C57BL/6J mouse assessed as increase in food intake at 500 pM,ICV administration and measured upto 24 hrs; assay type: functional
[9] = system: Melanocortin receptor 4 (Homo sapiens), P32245 [E100A]; assay: Agonist activity at N-terminal fused BRIL-Flag tagged human MC4-R E100A mutant transiently transfected in HEK293 cells assessed as fold change in cAMP accumulation by ELISA; assay type: cell-based; details: filed as agonist
[10] = system: Melanocortin receptor 4 (Homo sapiens), P32245 [D122A]; assay: Agonist activity at N-terminal fused BRIL-Flag tagged human MC4-R D122A mutant transiently transfected in HEK293 cells assessed as fold change in cAMP accumulation by ELISA; assay type: functional, cell-based; details: filed as agonist
[11] = system: Melanocortin receptor 4 (Homo sapiens), P32245 [D126A]; assay: Agonist activity at N-terminal fused BRIL-Flag tagged human MC4-R D126A mutant transiently transfected in HEK293 cells assessed as fold change in cAMP accumulation by ELISA; assay type: cell-based; details: filed as agonist
HEK293 [12] = assay: Selectivity ratio of EC50 for agonist activity at N-terminal FLAG tagged MC4-R (unknown origin) transiently transfected in HEK293 cells to EC50 for agonist activity at N-terminal FLAG tagged MC1-R (unknown origin) transiently transfected in HEK293 cells; assay type: cell-based
HEK293 [13] = assay: Selectivity ratio of IC50 for C-terminal HA-tagged human MC1-R stably expressed in HEK293 cells co-expressing GScAMP22P cAMP reporter assessed as inhibition of alpha-MSH induced cAMP production to IC50 for C-terminal HA-tagged human MC4-R stably expressed in HEK293 cells co-expressing GScAMP22P cAMP reporter assessed as inhibition of alpha-MSH induced cAMP production; assay type: cell-based

Melanocortin receptor 4, sequence (P32245 whole entry): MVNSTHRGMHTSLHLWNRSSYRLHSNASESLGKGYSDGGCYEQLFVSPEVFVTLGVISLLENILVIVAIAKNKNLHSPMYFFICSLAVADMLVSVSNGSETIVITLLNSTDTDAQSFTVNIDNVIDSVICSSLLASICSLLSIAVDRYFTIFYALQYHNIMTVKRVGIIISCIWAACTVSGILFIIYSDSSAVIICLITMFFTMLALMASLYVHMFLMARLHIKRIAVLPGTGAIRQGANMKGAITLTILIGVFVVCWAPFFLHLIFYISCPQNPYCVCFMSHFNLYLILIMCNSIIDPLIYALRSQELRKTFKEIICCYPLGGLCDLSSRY
Melanocortin receptor 3, sequence (P41968 whole entry): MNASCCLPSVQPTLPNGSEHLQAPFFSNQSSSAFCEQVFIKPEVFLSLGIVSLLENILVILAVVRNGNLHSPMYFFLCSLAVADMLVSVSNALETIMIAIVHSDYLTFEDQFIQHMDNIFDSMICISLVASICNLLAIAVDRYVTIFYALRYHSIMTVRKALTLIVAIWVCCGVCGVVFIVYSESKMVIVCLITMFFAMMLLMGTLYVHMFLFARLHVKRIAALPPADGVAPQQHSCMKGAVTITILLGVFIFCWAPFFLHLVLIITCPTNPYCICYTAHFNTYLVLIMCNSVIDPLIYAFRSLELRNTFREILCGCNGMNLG
Melanocortin receptor 4 (Homo sapiens), P32245 [D122A], sequence (P32245 whole entry D122A, the tested form may be a part): as the sequence (P32245 whole entry) above, with D122A counted along it
Melanocortin receptor 4 (Homo sapiens), P32245 [D126A], sequence (P32245 whole entry D126A, the tested form may be a part): as the sequence (P32245 whole entry) above, with D126A counted along it
Melanocortin receptor 4 (Homo sapiens), P32245 [E100A], sequence (P32245 whole entry E100A, the tested form may be a part): as the sequence (P32245 whole entry) above, with E100A counted along it

SMILES	IC50 (Melanocortin receptor 4; read-out: IC50) [nM]	IC50 (Melanocortin receptor 3; read-out: IC50) [nM]	IC50 [1] [nM]	inhibition [2] [%]	Ratio IC50 (HEK293 [3])	Ratio IC50 (HEK293 [4])	other results
CCCC[C@H](NC(C)=O)C(=O)N[C@H]1CC(=O)NCCCC[C@@H](C(N)=O)NC(=O)CNC(=O)[C@H](Cc2c[nH]c3ccccc23)NC(=O)[C@H](CCCNC(=N)N)NC(=O)[C@@H](Cc2ccc3ccccc3c2)NC(=O)[C@@H]2C[C@H](NC(=O)CC3CCCCC3)CN2C1=O	6.9	9.3	10.5	93.7	1.8	1.6	IC50 (Melanocortin receptor 4; read-out: pIC50 (converted)): 5.89 nM
CCCCC(NC(C)=O)C(=O)N[C@H]1CC(=O)NCCCC[C@@H](C(N)=O)NC(=O)CNC(=O)[C@H](Cc2c[nH]c3ccccc23)NC(=O)[C@H](CCCNC(=N)N)NC(=O)[C@@H](Cc2ccc3ccccc3c2)NC(=O)[C@@H]2C[C@@H](n3cc(C(C)(C)N)nn3)CN2C1=O (some centres undefined)				86.7	0.4	16.7	Activity (Mus musculus [5]): Active; Activity (Mus musculus [6]): Active
CCCC[C@H](NC(C)=O)C(=O)N[C@H]1CC(=O)NCCCC[C@@H](C(N)=O)NC(=O)CNC(=O)[C@H](Cc2c[nH]c3ccccc23)NC(=O)[C@H](CCCNC(=N)N)NC(=O)[C@@H](Cc2ccc3ccccc3c2)NC(=O)[C@@H]2C[C@H](n3cc(CCN)nn3)CN2C1=O	4.48	42.5	1.71	85.5	0.4	9.5	
CCCC[C@H](NC(C)=O)C(=O)N[C@H]1CC(=O)NCCCC[C@@H](C(N)=O)NC(=O)CNC(=O)[C@H](Cc2c[nH]c3ccccc23)NC(=O)[C@H](CCCN=C(N)N)NC(=O)[C@@H](Cc2ccc3ccccc3c2)NC(=O)[C@@H]2CCCN2C1=O		5.08	12	89.2			IC50 (Melanocortin receptor 3; read-out: pIC50 (converted)): 5.5 nM; inhibition (T-REx-293): Active
CCCC[C@H](NC(C)=O)C(=O)N[C@H]1CC(=O)NCCCC[C@@H](C(N)=O)NC(=O)CNC(=O)[C@H](Cc2c[nH]c3ccccc23)NC(=O)[C@H](CCCNC(=N)N)NC(=O)[C@@H](Cc2ccc3ccccc3c2)NC(=O)[C@@H]2C[C@H](n3cc(CCC(=O)O)nn3)CN2C1=O	18.8	130	389	86.4	20.8	6.9	
CCCCC(NC(C)=O)C(=O)N[C@H]1CC(=O)NCCCC[C@@H](C(N)=O)NC(=O)CNC(=O)[C@H](Cc2c[nH]c3ccccc23)NC(=O)[C@H](CCCNC(=N)N)NC(=O)[C@@H](Cc2ccc3ccccc3c2)NC(=O)[C@@H]2C[C@@H](n3cc(CCCNC(=N)N)nn3)CN2C1=O (some centres undefined)				84.7	0.1	5.8	
CCCC[C@H](NC(C)=O)C(=O)N[C@H]1CC(=O)NCCCC[C@@H](C(N)=O)NC(=O)CNC(=O)[C@H](Cc2c[nH]c3ccccc23)NC(=O)[C@H](CCCNC(=N)N)NC(=O)[C@@H](Cc2ccc3ccccc3c2)NC(=O)[C@@H]2C[C@H](n3cc(C(C)(C)N)nn3)CN2C1=O	5.01	34.3	2.53	83.8	0.5	6.8	Activity (Mus musculus [7]): inactive; Activity (Mus musculus [8]): inactive
CC(=O)N[C@@H](CCCNC(=N)N)C(=O)N[C@H]1CSSC[C@@H](C(N)=O)NC(=O)[C@H](Cc2c[nH]c3ccccc23)NC(=O)[C@H](CCCNC(=N)N)NC(=O)[C@@H](Cc2ccccc2)NC(=O)[C@H](Cc2c[nH]cn2)NC(=O)[C@@H](C)NC1=O							fold change (FC) [9]: 2; fold change (FC) [10]: 2; fold change (FC) [11]: 205; Ratio EC50 (HEK293 [12]): 20
CCCC[C@H](NC(C)=O)C(=O)N[C@H]1CC(=O)NCCCC[C@@H](C(N)=O)NC(=O)CNC(=O)[C@H](Cc2c[nH]c3ccccc23)NC(=O)[C@H](CCCNC(=N)N)NC(=O)[C@@H](Cc2ccc3ccccc3c2)NC(=O)[C@@H]2C[C@H](n3cc(-c4ccccn4)nn3)CN2C1=O	6.78	31.5	204	87.2	30.1	4.5	
CCCC[C@H](NC(C)=O)C(=O)N[C@H]1CC(=O)NCCCC[C@@H](C(N)=O)NC(=O)CNC(=O)[C@H](Cc2c[nH]c3ccccc23)NC(=O)[C@H](CCCNC(=N)N)NC(=O)[C@@H](Cc2ccc3ccccc3c2)NC(=O)[C@@H]2C[C@H](n3cc(-c4ccccc4)nn3)CN2C1=O	5.41	26.4	53.6	84.7	9.9	4.9	
CCCCCCc1cn([C@H]2C[C@H]3C(=O)N[C@H](Cc4ccc5ccccc5c4)C(=O)N[C@@H](CCCNC(=N)N)C(=O)N[C@@H](Cc4c[nH]c5ccccc45)C(=O)NCC(=O)N[C@H](C(N)=O)CCCCNC(=O)C[C@H](NC(=O)[C@H](CCCC)NC(C)=O)C(=O)N3C2)nn1	9.92	59.5	68.9	83.5	7	6	
CCCC[C@H](NC(C)=O)C(=O)N[C@H]1CC(=O)NCCCC[C@@H](C(N)=O)NC(=O)CNC(=O)[C@H](Cc2c[nH]c3ccccc23)NC(=O)[C@H](CCCNC(=N)N)NC(=O)[C@@H](Cc2ccc3ccccc3c2)NC(=O)[C@@H]2C[C@H](NC(=O)[C@@H](N)CCCN)CN2C1=O	2.97	8.96	0.25	85.1	0.1	3	Ratio IC50 (HEK293 [13]): 12
CCCC[C@H](NC(C)=O)C(=O)N[C@H]1CC(=O)NCCCC[C@@H](C(N)=O)NC(=O)CNC(=O)[C@H](Cc2c[nH]c3ccccc23)NC(=O)[C@H](CCCNC(=N)N)NC(=O)[C@@H](Cc2ccc3ccccc3c2)NC(=O)[C@@H]2C[C@H](NC(=O)[C@@H](N)CCC(=O)O)CN2C1=O	2.83	5.64	0.2	80.7	0.1	2	Ratio IC50 (HEK293 [13]): 14
CCCC[C@H](NC(C)=O)C(=O)N[C@H]1CC(=O)NCCCC[C@@H](C(N)=O)NC(=O)[C@H](CCCNC(=N)N)NC(=O)[C@H](Cc2c[nH]c3ccccc23)NC(=O)[C@H](CCCNC(=N)N)NC(=O)[C@@H](Cc2ccc3ccccc3c2)NC(=O)[C@@H]2CCCN2C1=O			299	86.8			inhibition (T-REx-293): Active
